According to ChEMBL document CHEMBL1201862, “PubChem BioAssay data set” (2004):
The source made the active and inactive calls.

Experiments:
Melanocortin receptor 4 = Melanocortin receptor 4 (Homo sapiens, UniProt P32245); test: MC4R antagonist potency on cAMP, dose response, cell-based, TR-FRET, biased antagonists (AID 602298); format: functional;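 also: antagonist potency against agonist-stimulated cAMP production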
[1] = nonselective inhibitors of cellular cAMP signaling, dose response, counter-screen for MC4R biased antagonist project, cell-based, TR-FRET cAMP detection (AID 602305); format: functional;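 also: U2OS cells stimulated with forskolin near its EC80 as the cAMP inducer; potency is for inhibition of forskolin-stimulated cAMP signaling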
HEK293 = test: inhibitors of LMP1-driven NF-kB reporter, dose response, cell-based, HEK293, luciferase, cherry-pick (AID 588343); format: functional; details: Homo sapiens
[2] = target: Latent membrane protein 1 (Human herpesvirus 4 (strain B95-8), UniProt P03230); test: TES1-eGFP NF-kB reporter inhibition versus Tet-On dsRED, dose response, selectivity assay for LMP1 NF-kB inhibitor project, imaging, HEK293T, dual-color eGFP/dsRED, cherry-picks (AID 588398); format: functional, cell-based
[3] = target: Serine/threonine-protein kinase pim-1 (Homo sapiens, UniProt P11309); format: functional
[4] = target: Cell division cycle 7-related protein kinase (Homo sapiens, UniProt O00311); format: functional;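 also: value obtained from a kinome-wide kinase panel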
[5] = target: Homeodomain-interacting protein kinase 2 (Homo sapiens, UniProt Q9H2X6); format: functional;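 also: measured within a kinome-wide kinase profiling panel, HIPK2 being one panel member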
[6] = target: Interleukin-1 receptor-associated kinase 4 (Homo sapiens, UniProt Q9NWZ3); format: functional
[7] = target: Glycogen synthase kinase-3 beta (Homo sapiens, UniProt P49841); format: functional;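 also: value comes from a broad kinome profiling panel, with GSK3B as the panel member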
[8] = target: cAMP-dependent protein kinase catalytic subunit alpha (Homo sapiens, UniProt P17612); format: functional
[9] = target: Dual specificity protein kinase CLK4 (Homo sapiens, UniProt Q9HAZ1); format: functional
[10] = target: Mitogen-activated protein kinase kinase kinase kinase 4 (Homo sapiens, UniProt O95819); format: functional
CHO = test: cytotoxicity in TLR9-MyD88 CHO cells, dose response, cytotoxicity control for TLR9-MyD88 binding inhibitor project, cell-based, luminescence (AID 588339); format: functional, hamster; details: Cricetulus griseus;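 also: CHO cells stably coexpressing TLR9 and MyD88 fusions from primary screen; compound exposure lasted 48 hours before viability readout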
Beta Lactamase = Beta Lactamase (Pseudomonas aeruginosa, UniProt Q932Y6); test: beta-lactamase reporter inhibitor potency, dose response, artefact control for TLR9-MyD88 binding inhibitor project, BLA reporter cells, FRET fluorescence (AID 588341); format: cell-based;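 also: cell based assay in CHO-K1 cells stably expressing beta-lactamase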
[11] = target: T1, Corticotropin-releasing factor receptor 2/Corticotropin-releasing factor-binding protein (Homo sapiens, UniProt P24387+Q13324); test: activators of CRF receptor 2 with binding protein – uHTS hits, confirmation (AID 602473); format: functional; details: read-out: EC50_Mean
T1 sequence (Q13324 whole entry): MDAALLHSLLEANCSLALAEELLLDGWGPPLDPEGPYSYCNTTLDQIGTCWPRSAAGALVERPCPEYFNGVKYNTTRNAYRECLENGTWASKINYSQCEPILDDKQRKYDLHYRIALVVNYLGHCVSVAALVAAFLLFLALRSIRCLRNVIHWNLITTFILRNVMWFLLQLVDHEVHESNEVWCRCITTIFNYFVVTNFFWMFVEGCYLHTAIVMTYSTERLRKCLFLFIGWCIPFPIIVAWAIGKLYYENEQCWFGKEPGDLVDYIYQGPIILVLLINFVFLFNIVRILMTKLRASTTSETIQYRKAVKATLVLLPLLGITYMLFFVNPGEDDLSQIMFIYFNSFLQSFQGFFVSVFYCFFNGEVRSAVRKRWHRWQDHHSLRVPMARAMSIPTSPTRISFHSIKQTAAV
T1 sequence (P24387 whole entry): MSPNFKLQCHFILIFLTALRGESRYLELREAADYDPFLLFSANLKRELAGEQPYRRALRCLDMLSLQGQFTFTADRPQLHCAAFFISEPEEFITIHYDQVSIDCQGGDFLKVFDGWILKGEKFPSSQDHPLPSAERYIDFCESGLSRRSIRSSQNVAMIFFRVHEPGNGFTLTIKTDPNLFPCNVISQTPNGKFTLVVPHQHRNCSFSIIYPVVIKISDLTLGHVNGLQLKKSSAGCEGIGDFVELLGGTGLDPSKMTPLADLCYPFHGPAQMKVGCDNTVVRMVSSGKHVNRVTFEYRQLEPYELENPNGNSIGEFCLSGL

[12] = target: T2, Sentrin-specific protease 8 (Homo sapiens, UniProt Q96LD8); test: SENP8 protease inhibitors, SAR follow-up, biochemical, luminescence (AID 504501); format: functional
T2 sequence (Q96LD8 whole entry): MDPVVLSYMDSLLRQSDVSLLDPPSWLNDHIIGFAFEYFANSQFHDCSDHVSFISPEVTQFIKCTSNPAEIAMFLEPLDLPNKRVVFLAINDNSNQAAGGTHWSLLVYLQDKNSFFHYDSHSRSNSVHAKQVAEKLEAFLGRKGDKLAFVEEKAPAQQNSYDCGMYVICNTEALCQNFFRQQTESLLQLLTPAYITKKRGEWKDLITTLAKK

Caspase-3 = target: T3, Caspase-3 (Homo sapiens, UniProt P42574); test: SAR Analysis of small molecule inhibitors of Sentrin-specific proteases (SENPs) using a Caspase-3 Selectivity assay. [Related pubchem assays (depositor defined):AID2540, AID2599, AID434973, AID489001]; format: functional
T3 sequence (P42574 whole entry): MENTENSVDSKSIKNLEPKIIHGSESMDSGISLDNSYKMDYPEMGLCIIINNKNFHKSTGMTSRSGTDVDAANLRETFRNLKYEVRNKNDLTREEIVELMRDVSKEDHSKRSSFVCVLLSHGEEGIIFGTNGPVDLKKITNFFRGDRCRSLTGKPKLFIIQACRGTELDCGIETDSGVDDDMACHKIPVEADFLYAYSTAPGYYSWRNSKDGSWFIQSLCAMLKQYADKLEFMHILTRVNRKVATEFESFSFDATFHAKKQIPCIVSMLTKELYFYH

[13] = target: T4, Sentrin-specific protease 6 (Homo sapiens, UniProt Q9GZR1); test: SAR Analysis of small molecule inhibitors of Sentrin-specific protease 6 (SENP6) using a Luminescent assay. [Related pubchem assays (depositor defined):AID2582, AID2599]; format: functional
T4 sequence (Q9GZR1 whole entry): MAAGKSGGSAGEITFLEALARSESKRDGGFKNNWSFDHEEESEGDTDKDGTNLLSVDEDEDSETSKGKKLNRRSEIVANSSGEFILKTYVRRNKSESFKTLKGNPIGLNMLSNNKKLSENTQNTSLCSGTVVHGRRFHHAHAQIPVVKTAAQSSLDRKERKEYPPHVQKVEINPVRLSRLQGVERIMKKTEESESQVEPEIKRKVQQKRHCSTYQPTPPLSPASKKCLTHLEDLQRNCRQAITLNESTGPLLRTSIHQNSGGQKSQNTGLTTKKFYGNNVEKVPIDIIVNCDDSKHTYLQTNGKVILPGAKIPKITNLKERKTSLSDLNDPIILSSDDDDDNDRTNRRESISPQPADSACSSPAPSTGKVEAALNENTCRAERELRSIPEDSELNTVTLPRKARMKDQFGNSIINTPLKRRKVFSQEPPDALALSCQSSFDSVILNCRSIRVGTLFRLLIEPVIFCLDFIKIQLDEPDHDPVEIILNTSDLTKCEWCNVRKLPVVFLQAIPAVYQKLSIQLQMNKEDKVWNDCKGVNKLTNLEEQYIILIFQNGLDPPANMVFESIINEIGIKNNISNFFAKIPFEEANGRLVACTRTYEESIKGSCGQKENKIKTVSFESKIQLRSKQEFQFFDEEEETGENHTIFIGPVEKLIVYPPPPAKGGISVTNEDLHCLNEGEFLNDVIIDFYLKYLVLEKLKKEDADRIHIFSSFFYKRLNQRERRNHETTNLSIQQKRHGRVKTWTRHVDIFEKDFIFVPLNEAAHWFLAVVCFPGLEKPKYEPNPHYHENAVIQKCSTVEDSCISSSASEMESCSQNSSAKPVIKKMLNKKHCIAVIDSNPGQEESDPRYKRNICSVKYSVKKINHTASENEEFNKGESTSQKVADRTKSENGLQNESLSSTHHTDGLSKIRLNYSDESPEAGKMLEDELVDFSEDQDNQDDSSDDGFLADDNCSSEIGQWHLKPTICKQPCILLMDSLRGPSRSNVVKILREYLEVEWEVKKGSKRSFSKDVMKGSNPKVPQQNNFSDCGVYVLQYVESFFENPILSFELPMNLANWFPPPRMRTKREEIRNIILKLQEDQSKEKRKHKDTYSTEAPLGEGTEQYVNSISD

[14] = target: T5, Sentrin-specific protease 7 (Homo sapiens, UniProt Q9BQF6); test: SENP7 protease inhibitors, SAR follow-up, biochemical, luminescence (AID 504497); format: functional
T5 sequence (Q9BQF6 whole entry): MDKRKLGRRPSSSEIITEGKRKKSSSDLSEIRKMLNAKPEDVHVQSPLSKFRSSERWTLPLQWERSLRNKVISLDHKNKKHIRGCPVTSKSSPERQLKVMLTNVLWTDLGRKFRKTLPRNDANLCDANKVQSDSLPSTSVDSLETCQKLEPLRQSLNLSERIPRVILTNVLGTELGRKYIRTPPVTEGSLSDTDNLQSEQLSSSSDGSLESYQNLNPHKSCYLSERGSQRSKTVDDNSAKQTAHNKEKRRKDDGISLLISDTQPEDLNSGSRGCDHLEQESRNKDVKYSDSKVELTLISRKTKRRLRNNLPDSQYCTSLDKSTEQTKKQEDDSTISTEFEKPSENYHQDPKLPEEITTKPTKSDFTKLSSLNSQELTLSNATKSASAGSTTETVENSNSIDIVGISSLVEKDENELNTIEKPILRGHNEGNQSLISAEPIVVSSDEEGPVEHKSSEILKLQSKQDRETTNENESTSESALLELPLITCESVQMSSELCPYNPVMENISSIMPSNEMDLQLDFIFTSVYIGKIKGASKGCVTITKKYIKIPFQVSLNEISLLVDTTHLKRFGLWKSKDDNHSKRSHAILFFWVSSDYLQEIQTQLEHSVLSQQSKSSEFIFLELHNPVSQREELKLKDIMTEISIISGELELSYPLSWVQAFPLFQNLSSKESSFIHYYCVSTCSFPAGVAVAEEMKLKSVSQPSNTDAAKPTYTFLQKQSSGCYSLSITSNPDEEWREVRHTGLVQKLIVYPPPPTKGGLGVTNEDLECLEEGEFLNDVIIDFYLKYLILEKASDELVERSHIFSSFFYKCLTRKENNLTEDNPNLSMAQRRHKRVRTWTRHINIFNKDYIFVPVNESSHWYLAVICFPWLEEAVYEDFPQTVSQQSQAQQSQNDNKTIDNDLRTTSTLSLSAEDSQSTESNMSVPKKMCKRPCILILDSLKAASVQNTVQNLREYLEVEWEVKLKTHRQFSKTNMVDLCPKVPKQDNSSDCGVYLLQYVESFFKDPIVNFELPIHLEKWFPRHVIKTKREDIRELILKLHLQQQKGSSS

LIM domain kinase 1 = LIM domain kinase 1 (Homo sapiens, UniProt P53667); test: Navigating the Kinome. Panel member name: LIMK1; format: functional
[15] = target: Serine/threonine-protein kinase Chk1 (Homo sapiens, UniProt O14757); format: functional;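 also: measured as one member of a kinome-wide kinase profiling panel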
[16] = target: Melanin-concentrating hormone receptor 1 (Homo sapiens, UniProt Q99705); test: Late-stage fluorescence-based counterscreen for antagonists of the G-protein coupled receptor 7 (GPR7): cell-based dose response assay to identify antagonists of the melanin-concentrating hormone receptor 1 (MCHR1) Set 6.; format: functional
[17] = target: T6, Neuropeptides B/W receptor type 1 (Homo sapiens, UniProt P48145); test: GPR7 antagonist potency, late-stage follow-up, cell-based, fluorescence, dose response, set 6 (AID 588583); format: functional
T6 sequence (P48145 whole entry): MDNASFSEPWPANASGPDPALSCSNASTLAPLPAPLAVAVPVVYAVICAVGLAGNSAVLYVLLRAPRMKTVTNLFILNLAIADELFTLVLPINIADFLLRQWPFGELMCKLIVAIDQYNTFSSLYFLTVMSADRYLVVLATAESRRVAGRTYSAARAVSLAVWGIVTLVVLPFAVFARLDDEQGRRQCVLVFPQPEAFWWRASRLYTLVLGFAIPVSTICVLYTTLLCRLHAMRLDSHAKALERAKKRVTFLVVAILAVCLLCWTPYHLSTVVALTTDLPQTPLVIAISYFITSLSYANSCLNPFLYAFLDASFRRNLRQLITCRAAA

[18] = target: Tyrosine-protein kinase JAK2 (Homo sapiens, UniProt O60674); format: functional;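 also: JAK2 tested as one member of a kinase panel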
[19] = target: Vascular endothelial growth factor receptor 2 (Homo sapiens, UniProt P35968); format: functional
[20] = target: cAMP-dependent protein kinase catalytic subunit PRKX (Homo sapiens, UniProt P51817); format: functional
[21] = target: Leucine-rich repeat serine/threonine-protein kinase 2 (Homo sapiens, UniProt Q5S007); format: functional;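 also: value from a broad kinome-wide panel profiling study in which LRRK2 was one of the kinases tested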
[22] = target: Leukocyte tyrosine kinase receptor (Homo sapiens, UniProt P29376); test: Navigating the Kinome. Panel member name: LTK; format: functional

Sequence of Melanocortin receptor 4 (P32245 whole entry): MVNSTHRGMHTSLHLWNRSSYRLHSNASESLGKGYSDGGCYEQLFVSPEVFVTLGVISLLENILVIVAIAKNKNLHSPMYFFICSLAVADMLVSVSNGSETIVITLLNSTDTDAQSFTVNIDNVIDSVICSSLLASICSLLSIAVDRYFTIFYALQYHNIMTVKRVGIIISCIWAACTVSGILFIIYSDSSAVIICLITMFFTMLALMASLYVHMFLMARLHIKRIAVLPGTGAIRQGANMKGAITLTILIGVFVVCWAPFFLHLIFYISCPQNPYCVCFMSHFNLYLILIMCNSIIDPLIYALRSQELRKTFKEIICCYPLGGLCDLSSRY
Sequence of Serine/threonine-protein kinase Chk1 (O14757 whole entry): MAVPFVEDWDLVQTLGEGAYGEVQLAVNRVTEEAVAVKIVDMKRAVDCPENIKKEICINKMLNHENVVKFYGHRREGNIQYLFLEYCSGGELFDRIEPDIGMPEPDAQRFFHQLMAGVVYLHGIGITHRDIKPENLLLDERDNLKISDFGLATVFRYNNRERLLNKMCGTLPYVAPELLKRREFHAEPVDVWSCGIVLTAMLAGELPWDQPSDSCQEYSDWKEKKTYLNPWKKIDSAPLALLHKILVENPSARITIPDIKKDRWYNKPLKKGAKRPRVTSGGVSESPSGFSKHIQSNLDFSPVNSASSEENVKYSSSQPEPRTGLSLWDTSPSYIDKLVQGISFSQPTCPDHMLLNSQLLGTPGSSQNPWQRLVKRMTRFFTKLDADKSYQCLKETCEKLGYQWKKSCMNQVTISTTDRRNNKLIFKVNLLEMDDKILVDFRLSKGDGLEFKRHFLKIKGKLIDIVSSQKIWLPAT
Sequence of Leucine-rich repeat serine/threonine-protein kinase 2 (Q5S007 whole entry): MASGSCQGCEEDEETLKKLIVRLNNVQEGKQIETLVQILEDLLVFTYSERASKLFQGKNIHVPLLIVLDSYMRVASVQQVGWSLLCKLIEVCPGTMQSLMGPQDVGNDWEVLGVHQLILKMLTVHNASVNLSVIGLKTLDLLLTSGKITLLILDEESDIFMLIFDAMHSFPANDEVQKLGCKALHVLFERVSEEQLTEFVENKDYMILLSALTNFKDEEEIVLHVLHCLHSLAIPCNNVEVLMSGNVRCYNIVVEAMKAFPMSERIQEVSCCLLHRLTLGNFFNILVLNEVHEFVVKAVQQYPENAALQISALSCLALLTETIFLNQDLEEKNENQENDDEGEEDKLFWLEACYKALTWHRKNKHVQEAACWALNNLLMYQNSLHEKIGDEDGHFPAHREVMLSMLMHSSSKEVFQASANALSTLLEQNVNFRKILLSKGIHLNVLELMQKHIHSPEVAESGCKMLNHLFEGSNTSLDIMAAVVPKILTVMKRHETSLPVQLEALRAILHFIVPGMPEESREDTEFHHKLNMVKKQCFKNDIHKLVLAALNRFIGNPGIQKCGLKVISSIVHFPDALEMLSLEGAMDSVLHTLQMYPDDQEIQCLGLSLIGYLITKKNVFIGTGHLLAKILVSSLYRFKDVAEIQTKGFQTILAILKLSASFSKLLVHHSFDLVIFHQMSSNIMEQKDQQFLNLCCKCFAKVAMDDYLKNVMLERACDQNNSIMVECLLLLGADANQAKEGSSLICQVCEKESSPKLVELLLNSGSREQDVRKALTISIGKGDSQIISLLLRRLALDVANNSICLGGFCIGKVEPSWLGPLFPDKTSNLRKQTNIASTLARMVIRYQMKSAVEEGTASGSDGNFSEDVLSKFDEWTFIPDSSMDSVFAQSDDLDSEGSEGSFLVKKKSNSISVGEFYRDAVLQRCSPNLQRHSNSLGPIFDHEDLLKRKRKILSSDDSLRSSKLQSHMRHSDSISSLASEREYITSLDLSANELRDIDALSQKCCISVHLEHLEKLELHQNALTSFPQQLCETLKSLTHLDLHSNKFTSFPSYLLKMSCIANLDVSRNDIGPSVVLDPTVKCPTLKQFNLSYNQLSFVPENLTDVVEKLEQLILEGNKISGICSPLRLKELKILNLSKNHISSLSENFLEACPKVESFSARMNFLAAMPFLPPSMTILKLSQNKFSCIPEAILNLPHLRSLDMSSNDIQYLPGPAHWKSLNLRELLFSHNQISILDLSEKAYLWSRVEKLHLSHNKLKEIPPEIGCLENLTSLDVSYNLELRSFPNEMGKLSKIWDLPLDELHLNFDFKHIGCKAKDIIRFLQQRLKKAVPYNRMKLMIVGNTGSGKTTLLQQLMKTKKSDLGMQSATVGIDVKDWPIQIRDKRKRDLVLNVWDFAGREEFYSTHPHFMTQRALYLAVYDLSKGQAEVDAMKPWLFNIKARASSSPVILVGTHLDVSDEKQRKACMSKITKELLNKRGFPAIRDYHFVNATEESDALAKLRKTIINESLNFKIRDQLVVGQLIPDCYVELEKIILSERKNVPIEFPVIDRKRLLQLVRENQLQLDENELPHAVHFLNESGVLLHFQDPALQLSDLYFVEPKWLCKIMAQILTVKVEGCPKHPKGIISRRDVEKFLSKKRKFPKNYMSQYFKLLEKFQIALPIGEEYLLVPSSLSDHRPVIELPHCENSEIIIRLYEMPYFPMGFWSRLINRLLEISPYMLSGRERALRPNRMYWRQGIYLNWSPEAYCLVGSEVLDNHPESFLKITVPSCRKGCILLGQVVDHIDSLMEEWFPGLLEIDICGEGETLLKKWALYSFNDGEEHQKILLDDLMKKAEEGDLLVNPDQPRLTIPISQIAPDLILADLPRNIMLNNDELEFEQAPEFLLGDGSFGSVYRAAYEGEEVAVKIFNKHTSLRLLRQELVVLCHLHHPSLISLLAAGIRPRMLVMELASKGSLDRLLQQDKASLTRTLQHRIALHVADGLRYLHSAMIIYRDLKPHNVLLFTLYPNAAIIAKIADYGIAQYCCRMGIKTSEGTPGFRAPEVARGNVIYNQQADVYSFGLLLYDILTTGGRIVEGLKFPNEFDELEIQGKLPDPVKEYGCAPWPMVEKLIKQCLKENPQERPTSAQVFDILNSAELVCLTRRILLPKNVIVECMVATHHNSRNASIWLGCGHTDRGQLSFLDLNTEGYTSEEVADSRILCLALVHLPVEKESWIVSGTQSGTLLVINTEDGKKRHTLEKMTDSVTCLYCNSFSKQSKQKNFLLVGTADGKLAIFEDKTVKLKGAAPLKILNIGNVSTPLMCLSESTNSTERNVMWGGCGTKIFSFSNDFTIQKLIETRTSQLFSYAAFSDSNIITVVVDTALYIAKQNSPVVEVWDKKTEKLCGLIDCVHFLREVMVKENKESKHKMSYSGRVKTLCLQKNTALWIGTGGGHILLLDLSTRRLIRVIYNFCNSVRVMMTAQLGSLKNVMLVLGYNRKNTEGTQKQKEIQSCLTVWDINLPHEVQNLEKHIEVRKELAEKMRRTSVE
Sequence of Cell division cycle 7-related protein kinase (O00311 whole entry): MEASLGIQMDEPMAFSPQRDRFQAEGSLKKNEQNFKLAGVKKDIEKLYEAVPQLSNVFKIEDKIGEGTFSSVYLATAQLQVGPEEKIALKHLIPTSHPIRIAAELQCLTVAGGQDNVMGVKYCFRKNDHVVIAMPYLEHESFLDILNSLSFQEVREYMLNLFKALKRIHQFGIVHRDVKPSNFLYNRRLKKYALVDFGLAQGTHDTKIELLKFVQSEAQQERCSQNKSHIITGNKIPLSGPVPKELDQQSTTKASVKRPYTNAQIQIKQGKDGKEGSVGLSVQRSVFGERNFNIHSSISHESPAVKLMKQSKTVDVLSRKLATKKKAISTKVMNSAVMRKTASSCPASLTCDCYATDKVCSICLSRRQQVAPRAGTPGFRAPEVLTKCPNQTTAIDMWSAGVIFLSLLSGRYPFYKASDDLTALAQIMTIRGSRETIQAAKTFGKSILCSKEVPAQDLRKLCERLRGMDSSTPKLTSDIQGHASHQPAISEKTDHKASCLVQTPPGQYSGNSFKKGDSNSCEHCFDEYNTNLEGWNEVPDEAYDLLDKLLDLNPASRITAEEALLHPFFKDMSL
Sequence of Dual specificity protein kinase CLK4 (Q9HAZ1 whole entry): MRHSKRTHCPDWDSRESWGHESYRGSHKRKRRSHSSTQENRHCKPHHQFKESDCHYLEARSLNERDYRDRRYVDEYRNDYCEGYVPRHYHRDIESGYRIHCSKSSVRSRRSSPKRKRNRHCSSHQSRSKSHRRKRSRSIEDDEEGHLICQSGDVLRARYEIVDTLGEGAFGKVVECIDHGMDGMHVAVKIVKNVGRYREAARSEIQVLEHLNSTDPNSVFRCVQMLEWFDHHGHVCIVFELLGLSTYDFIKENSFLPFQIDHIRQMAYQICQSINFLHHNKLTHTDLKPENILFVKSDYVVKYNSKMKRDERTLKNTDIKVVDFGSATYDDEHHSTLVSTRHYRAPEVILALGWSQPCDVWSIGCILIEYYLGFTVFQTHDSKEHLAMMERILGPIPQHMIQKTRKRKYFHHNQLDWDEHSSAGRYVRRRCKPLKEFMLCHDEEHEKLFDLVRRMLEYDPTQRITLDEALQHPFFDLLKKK
Sequence of Beta Lactamase (Q932Y6 whole entry): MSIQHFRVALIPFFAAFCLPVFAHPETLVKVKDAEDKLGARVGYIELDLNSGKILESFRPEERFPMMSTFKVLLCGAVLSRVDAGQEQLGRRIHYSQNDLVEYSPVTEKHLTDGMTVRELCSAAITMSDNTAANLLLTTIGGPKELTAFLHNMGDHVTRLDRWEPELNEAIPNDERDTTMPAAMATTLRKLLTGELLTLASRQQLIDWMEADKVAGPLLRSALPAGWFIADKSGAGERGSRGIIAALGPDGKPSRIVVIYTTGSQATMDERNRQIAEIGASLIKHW
Sequence of Serine/threonine-protein kinase pim-1 (P11309 whole entry): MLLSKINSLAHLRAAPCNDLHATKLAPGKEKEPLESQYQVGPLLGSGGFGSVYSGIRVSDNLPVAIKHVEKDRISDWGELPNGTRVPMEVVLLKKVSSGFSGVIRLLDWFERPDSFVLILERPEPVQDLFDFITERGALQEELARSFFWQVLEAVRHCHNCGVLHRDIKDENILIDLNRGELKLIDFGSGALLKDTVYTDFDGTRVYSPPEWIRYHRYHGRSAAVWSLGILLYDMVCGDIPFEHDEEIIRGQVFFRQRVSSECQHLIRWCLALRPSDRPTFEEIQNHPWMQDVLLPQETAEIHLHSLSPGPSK

In the case of `CN1CCC(Oc2ccccc2Sc2ccc(C(F)(F)F)cc2)CC1`, the IC50 (Melanocortin receptor 4) is reported as > 64600 nM (inactive) and the IC50 [1] is reported as > 64600 nM (inactive).

In the case of `CC(=O)N1c2ccc(S(=O)(=O)N3CCC(C(=O)N4CCN(c5ccc(Cl)cc5)CC4)CC3)cc2CC1C` (stereo not drawn), the AC50 (HEK293) is reported as 1010 nM (active) and the AC50 [2] is reported as 108000 nM (active).

With `CCCCNc1c(-c2ccc3[nH]ncc3c2)nc2ncccn12` the Ki [3] was 501 nM (active), the Ki [4] was 10 nM (active) and the Ki [5] was 100 nM (active). For the same molecule, the Ki [6] was > 10000 nM (inactive), the Ki [7] was 15.8 nM (active) and the Ki [8] was 1000 nM (active). For the same molecule, the Ki [9] was 3.98 nM (active) and the Ki [10] was 1580 nM (active).

For `CC(O)CN(CC(C)O)c1ccc2c(c1)Cc1cc([N+](=O)[O-])ccc1-2` (stereo not drawn), the IC50 (CHO) was > 49800 nM (inactive), the IC50 (Beta Lactamase) was 5090 nM (active) and the EC50 [11] was 870 nM (active).

For `Clc1ccc(/C=N/Nc2cc(N3CCOCC3)nc(N3CCOCC3)n2)c(Cl)c1`, the IC50 [12] was > 99000 nM (inactive), the IC50 (Caspase-3) was > 99000 nM (inactive) and the IC50 [13] was > 99000 nM (inactive). For the same molecule, the IC50 [14] was > 99000 nM (inactive).

With `Clc1ccc2c(c1)NC1(CCCCC1)N2` the Ki (LIM domain kinase 1) was 2000 nM (active) and the Ki [15] was 2510 nM (active).

In the case of `COc1ccc(-c2c(Br)cnn(Cc3cccc4ccccc34)c2=O)cc1`, the IC50 [16] is reported as 974 nM (active) and the IC50 [17] is reported as 974 nM (active).

In the case of `CC(=O)c1c(C)c2cnc(Nc3ccc(N4CCNCC4)cn3)nc2n(C2CCCC2)c1=O` [PALBOCICLIB], the Ki [18] is reported as > 2510 nM (inactive), the Ki [19] is reported as > 2000 nM (inactive) and the Ki [20] is reported as 2510 nM (active). The Ki [21] was 2510 nM (active) and the Ki [22] was > 2510 nM (inactive).
